Laboratory results reported in ChEMBL document CHEMBL2429832, “N-substituted 8-aminopentacyclo[5.4.0.0(2,6).0(3,10).0(5,9)]undecanes as σ receptor ligands with potential neuroprotective effects” (Bioorg Med Chem, 2013).

Legend:
[1] = molecular target: T1, 5-hydroxytryptamine receptor 2C (Homo sapiens) (UniProt P28335); test: Inhibition of 5-HT2C receptor (unknown origin) at 10 uM by PDSP assay relative to control
T1 sequence (whole entry): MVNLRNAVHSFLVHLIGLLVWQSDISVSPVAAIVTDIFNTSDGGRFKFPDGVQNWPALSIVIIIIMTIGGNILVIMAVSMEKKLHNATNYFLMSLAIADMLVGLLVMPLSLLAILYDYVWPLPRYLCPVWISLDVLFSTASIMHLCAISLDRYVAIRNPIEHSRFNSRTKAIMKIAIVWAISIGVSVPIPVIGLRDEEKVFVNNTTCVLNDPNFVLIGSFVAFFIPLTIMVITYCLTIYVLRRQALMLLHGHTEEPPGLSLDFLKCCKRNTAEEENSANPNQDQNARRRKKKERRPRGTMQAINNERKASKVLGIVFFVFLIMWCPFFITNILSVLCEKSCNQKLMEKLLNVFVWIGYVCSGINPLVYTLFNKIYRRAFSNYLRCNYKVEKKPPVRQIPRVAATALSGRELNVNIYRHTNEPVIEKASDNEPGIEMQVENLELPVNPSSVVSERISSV

[2] = molecular target: T2, Alpha-2A adrenergic receptor (Homo sapiens) (UniProt P08913); test: Inhibition of adrenergic alpha2A receptor (unknown origin) at 10 uM by PDSP assay relative to control
T2 sequence (whole entry): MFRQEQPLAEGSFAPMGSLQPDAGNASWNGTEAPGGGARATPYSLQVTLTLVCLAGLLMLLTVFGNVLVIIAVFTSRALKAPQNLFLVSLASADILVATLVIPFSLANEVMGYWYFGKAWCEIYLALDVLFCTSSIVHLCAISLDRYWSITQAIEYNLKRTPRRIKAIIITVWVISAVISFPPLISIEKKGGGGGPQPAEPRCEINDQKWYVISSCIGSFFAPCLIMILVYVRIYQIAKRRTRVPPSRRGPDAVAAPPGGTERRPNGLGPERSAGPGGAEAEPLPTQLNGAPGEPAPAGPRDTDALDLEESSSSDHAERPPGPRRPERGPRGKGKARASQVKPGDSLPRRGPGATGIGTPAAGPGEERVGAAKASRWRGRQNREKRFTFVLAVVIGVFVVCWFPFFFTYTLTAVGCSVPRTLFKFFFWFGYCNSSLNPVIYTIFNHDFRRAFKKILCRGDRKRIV

[3] = molecular target: 5-hydroxytryptamine receptor 6 (Homo sapiens, UniProt P50406); test: Inhibition of 5-HT6 receptor (unknown origin) at 10 uM by PDSP assay relative to control
5-hydroxytryptamine receptor 6, sequence (P50406 whole entry): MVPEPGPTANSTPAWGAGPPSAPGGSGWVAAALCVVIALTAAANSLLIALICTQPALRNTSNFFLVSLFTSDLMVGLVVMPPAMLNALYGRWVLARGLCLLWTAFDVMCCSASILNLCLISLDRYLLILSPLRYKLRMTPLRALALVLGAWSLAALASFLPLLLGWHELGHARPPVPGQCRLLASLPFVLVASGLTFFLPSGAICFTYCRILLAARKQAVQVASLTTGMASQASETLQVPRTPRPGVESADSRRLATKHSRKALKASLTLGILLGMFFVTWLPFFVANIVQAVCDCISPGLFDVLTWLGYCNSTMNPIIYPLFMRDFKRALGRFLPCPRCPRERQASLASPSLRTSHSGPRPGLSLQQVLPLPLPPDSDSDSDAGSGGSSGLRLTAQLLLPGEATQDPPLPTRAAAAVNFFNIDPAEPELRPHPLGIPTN

[4] = molecular target: D(3) dopamine receptor (Homo sapiens, UniProt P35462); test: Inhibition of dopamine D3 receptor (unknown origin) at 10 uM by PDSP assay relative to control
D(3) dopamine receptor, sequence (P35462 whole entry): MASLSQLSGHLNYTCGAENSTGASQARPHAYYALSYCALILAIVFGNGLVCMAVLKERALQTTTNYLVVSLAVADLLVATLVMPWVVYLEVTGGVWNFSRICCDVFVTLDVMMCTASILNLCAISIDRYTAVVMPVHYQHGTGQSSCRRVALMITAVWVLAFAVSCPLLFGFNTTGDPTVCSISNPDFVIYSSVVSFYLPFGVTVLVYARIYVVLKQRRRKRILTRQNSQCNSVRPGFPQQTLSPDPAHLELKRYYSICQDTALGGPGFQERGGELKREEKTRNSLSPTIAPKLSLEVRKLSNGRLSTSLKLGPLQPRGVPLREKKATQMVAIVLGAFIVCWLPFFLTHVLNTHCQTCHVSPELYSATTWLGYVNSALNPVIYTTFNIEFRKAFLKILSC

[5] = molecular target: Beta-2 adrenergic receptor (Homo sapiens) (UniProt P07550); test: Inhibition of adrenergic beta2 receptor (unknown origin) at 10 uM by PDSP assay relative to control
Beta-2 adrenergic receptor (Homo sapiens), sequence (P07550 whole entry, looked up): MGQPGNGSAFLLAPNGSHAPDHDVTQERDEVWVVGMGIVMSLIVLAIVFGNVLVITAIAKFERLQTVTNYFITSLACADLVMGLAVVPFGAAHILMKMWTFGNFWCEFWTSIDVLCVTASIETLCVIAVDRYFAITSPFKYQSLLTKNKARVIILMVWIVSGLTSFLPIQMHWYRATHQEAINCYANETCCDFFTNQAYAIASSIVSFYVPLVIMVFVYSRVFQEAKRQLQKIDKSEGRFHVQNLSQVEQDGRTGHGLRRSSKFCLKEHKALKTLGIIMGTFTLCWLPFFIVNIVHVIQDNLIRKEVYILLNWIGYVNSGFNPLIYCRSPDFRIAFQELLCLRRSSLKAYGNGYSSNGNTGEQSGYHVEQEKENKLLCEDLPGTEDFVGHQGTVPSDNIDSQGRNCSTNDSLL

[6] = molecular target: T3, Muscarinic acetylcholine receptor M5 (Homo sapiens) (UniProt P08912); test: Inhibition of muscarinic M5 receptor (unknown origin) at 10 uM by PDSP assay relative to control
T3 sequence (whole entry): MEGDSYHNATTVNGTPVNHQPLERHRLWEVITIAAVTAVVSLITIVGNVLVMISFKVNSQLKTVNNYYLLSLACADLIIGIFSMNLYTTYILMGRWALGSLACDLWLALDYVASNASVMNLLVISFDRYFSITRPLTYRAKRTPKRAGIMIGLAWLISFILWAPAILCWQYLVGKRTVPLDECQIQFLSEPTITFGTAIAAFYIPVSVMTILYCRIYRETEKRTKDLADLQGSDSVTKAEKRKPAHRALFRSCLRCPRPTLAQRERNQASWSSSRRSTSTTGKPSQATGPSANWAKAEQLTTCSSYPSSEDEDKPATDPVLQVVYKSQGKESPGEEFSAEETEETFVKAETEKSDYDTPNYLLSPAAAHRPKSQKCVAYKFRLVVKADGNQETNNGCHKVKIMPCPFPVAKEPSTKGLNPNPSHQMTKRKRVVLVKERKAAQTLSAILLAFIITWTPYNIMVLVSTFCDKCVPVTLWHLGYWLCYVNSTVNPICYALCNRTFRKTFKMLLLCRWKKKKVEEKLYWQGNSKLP

[7] = molecular target: 5-hydroxytryptamine receptor 5A (Homo sapiens, UniProt P47898); test: Inhibition of 5-HT5A receptor (unknown origin) at 10 uM by PDSP assay relative to control
5-hydroxytryptamine receptor 5A, sequence (P47898 whole entry): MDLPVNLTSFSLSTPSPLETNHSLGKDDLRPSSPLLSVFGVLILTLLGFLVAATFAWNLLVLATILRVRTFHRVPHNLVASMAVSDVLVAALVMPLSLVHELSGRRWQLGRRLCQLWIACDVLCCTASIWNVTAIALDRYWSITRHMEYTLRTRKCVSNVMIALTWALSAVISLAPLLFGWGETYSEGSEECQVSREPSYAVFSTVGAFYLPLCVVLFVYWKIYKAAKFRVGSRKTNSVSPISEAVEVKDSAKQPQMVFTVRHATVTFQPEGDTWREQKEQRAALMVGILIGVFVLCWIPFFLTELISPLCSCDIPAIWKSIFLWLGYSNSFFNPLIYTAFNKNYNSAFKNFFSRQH

[8] = molecular target: T4, 5-hydroxytryptamine receptor 1A (Homo sapiens) (UniProt P08908); test: Inhibition of 5-HT1A receptor (unknown origin) at 10 uM by PDSP assay relative to control
T4 sequence (whole entry): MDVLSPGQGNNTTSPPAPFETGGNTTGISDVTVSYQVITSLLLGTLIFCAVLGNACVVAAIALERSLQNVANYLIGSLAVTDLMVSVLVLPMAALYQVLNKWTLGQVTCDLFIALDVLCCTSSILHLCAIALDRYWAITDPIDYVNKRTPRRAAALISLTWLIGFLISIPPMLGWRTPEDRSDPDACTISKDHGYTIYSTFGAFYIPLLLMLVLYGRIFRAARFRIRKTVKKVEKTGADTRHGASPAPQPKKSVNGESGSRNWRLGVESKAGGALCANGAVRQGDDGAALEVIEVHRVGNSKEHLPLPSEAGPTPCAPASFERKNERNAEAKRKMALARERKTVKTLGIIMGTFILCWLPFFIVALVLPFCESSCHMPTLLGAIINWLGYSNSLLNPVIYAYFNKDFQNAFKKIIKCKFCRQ

[9] = molecular target: Sodium-dependent serotonin transporter (Homo sapiens, UniProt P31645); test: Displacement of [3H]-citalopram from human SERT expressed in HEK cell membranes at 10 uM relative to control; details: HEK293
Sodium-dependent serotonin transporter, sequence (P31645 whole entry, looked up): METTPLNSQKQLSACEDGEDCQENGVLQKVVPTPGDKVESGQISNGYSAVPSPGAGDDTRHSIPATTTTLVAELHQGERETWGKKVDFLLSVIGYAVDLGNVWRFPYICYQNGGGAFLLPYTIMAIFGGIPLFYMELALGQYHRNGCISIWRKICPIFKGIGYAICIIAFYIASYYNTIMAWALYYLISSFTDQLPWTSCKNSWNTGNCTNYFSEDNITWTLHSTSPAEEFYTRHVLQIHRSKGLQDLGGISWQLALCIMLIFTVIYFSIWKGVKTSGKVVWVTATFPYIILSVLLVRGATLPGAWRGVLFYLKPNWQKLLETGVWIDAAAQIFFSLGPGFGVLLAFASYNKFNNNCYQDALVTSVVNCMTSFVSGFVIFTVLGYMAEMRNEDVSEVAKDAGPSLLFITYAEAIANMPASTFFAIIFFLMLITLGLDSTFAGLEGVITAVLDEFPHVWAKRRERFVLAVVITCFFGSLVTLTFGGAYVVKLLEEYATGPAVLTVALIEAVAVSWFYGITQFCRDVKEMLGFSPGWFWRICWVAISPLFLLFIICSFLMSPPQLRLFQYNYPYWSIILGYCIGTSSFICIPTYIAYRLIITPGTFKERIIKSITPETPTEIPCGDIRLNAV

[10] = molecular target: T5, Muscarinic acetylcholine receptor M2 (Homo sapiens, UniProt P08172); test: Inhibition of muscarinic M2 receptor (unknown origin) by PDSP assay
T5 sequence (P08172 whole entry): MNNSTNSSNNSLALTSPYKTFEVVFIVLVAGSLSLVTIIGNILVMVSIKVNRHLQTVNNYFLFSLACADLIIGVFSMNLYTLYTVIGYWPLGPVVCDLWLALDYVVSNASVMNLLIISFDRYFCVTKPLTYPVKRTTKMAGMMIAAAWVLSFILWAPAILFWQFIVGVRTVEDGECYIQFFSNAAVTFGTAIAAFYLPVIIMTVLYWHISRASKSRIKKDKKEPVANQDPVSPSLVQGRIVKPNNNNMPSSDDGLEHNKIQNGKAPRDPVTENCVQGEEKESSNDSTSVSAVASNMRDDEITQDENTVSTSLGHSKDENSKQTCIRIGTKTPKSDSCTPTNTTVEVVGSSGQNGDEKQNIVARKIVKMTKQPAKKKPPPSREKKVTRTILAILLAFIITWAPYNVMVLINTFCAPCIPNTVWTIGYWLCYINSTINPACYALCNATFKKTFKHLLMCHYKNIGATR

[11] = molecular target: Sodium-dependent dopamine transporter (Homo sapiens, UniProt Q01959); test: Displacement of [3H]-WIN-35,428 from human DAT expressed in HEK cell membranes at 10 uM relative to control; details: HEK293
Sodium-dependent dopamine transporter, sequence (Q01959 whole entry): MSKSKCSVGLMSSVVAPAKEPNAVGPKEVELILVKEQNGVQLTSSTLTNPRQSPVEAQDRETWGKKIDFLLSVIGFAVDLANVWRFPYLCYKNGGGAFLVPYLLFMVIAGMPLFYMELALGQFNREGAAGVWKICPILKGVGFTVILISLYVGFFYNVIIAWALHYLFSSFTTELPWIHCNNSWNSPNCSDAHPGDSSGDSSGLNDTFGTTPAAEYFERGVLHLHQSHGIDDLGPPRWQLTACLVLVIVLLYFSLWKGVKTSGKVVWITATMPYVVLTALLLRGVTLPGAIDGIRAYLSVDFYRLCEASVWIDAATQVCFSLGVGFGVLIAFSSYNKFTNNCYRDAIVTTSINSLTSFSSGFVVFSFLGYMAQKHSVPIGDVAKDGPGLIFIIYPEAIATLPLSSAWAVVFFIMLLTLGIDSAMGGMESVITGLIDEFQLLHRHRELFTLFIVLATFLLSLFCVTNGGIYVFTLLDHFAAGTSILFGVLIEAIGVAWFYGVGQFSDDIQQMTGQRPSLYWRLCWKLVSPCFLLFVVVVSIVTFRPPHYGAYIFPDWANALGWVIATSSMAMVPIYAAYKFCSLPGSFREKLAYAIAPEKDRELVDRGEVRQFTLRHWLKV

Compound | inhibition [1] [%] | inhibition [2] [%] | inhibition [3] [%] | inhibition [4] [%] | inhibition [5] [%] | inhibition [6] [%] | inhibition [7] [%] | inhibition [8] [%] | inhibition [9] [%] | Ki [10] [µM] | inhibition [11] [%]
COc1cc(CN(C)[C@H]2C3C4CC5C6C4CC3C6C52)cc(OC)c1OC (some centres not stated) | < 50 | < 50 | < 50 | < 50 | < 50 | < 50 | < 50 | < 50 |  |  | 
c1ccc(CCN[C@H]2C3C4CC5C6C4CC3C6C52)cc1 (some centres not stated) | < 50 |  | < 50 |  | < 50 |  | < 50 | < 50 | < 50 | 1.03 | 
C1C2C3CC4C2C2C1C3[C@H](NCC13C5C6C7C5C1C7C63)C42 (some centres not stated) | < 50 | < 50 | < 50 |  | < 50 |  |  | < 50 | < 50 | 0.195 | 
CN(CC1CCCCC1)[C@H]1C2C3CC4C5C3CC2C5C41 (some centres not stated) | < 50 | < 50 | < 50 | < 50 | < 50 | < 50 | < 50 | < 50 | < 50 |  | < 50
CN(CCc1cccc(F)c1)[C@H]1C2C3CC4C2C(=O)C2C4C3C21 (some centres not stated) | < 50 | < 50 | < 50 | < 50 | < 50 |  | < 50 | < 50 | < 50 | 2.29 | < 50
CN(CCc1ccccc1)[C@H]1C2C3CC4C5C3CC2C5C41 (some centres not stated) | < 50 | < 50 | < 50 |  | < 50 | < 50 | < 50 | < 50 | < 50 |  | < 50
CN(CCCc1cccc(F)c1)[C@H]1C2C3CC4C2C(=O)C2C4C3C21 (some centres not stated) | < 50 |  | < 50 | < 50 | < 50 |  | < 50 | < 50 | < 50 | 0.487 | < 50
CN(Cc1ccccc1)[C@H]1C2C3CC4C5C3CC2C5C41 (some centres not stated) | < 50 | < 50 | < 50 | < 50 | < 50 | < 50 | < 50 | < 50 | < 50 |  | 
COc1ccc(CN[C@H]2C3C4CC5C6C4CC3C6C52)cc1OC (some centres not stated) | < 50 |  |  |  | < 50 | < 50 | < 50 | < 50 |  |  | < 50
C1CCC(CN[C@H]2C3C4CC5C6C4CC3C6C52)CC1 (some centres not stated) | < 50 | < 50 | < 50 |  | < 50 |  | < 50 | < 50 | < 50 | 1.01 | < 50
CN(CCCc1cccc(F)c1)[C@H]1C2C3CC4C5C3CC2C5C41 (some centres not stated) | < 50 | < 50 | < 50 |  | < 50 | < 50 | < 50 | < 50 | < 50 |  | < 50
c1ccc(CCN[C@H]2C3C4CC5C6C4CC3C6C52)nc1 (some centres not stated) | < 50 | < 50 |  |  | < 50 |  | < 50 | < 50 | < 50 | 2.79 | 
COc1ccc(CN(C)[C@H]2C3C4CC5C6C4CC3C6C52)cc1OC (some centres not stated) | < 50 | < 50 | < 50 | < 50 | < 50 | < 50 | < 50 | < 50 | < 50 |  | < 50
CN(Cc1ccc2c(c1)OCO2)[C@H]1C2C3CC4C5C3CC2C5C41 (some centres not stated) | < 50 | < 50 | < 50 | < 50 | < 50 | < 50 | < 50 | < 50 |  |  | < 50
CN(CCc1ccccc1)[C@H]1C2C3CC4C2C(=O)C2C4C3C21 (some centres not stated) | < 50 | < 50 | < 50 | < 50 | < 50 |  | < 50 | < 50 | < 50 | 1.94 | 
COc1cc(CN[C@H]2C3C4CC5C6C4CC3C6C52)cc(OC)c1OC (some centres not stated) | < 50 | < 50 | < 50 |  | < 50 | < 50 | < 50 | < 50 |  |  | < 50
c1ccc(CN[C@H]2C3C4CC5C6C4CC3C6C52)cc1 (some centres not stated) | < 50 | < 50 | < 50 | < 50 | < 50 | < 50 | < 50 | < 50 | < 50 |  | 
COc1ccc(CN(C)[C@H]2C3C4CC5C3C(=O)C3C5C4C32)cc1OC (some centres not stated) | < 50 |  | < 50 | < 50 | < 50 | < 50 | < 50 | < 50 | < 50 |  | < 50
c1cc2c(cc1CN[C@H]1C3C4CC5C6C4CC3C6C51)OCO2 (some centres not stated) | < 50 | < 50 | < 50 |  | < 50 | < 50 |  | < 50 |  | 4.41 | < 50
